Earlier results in paper PMC9046186, “A distinctive ligand recognition mechanism by the human vasoactive intestinal polypeptide receptor 2” (Nature Communications, 2022).

Legend:
[1] = system: VIP1R; conditions: introduction, Fig. 1a, b; no reference given
[2] = system: VIP2R; conditions: introduction, Fig. 1a, b; no reference given

Row | Substance | affinity at VIP1R [1] | affinity at VIP2R [2]
1 | Vasoactive intestinal peptide [VIP] | comparable affinity | comparable affinity
2 | pituitary adenylate cyclase-activating polypeptide [PACAP38] | comparable affinity | comparable affinity
